Patent US12115161B2, “Prophylactic and/or therapeutic agent for inflammatory diseases which contains pyrrolopyrimidine compound as active ingredient” (KEIO UNIVERSITY, priority 2018, dated 2024)

Columns and labels:
[1] = tested on: peripheral blood monocytes and B cells from Sjögren syndrome patients; assay: IgG production in coculture of BAFF-stimulated peripheral blood monocytes and B cells (Example 4); format: cell-based, human; details: for IL-6 production inhibitory effect compared with the control: 4 days
Procedure: Monocytes were isolated from Sjögren syndrome patient peripheral blood using CD14 microbeads, and B cells were isolated from the peripheral blood using CD19 microbeads. Using Transwell® culture plates, 2×10^5 monocytes per well were seeded in the upper plate and 1×10^5 B cells in the lower plate to be cultured in the presence of 2 μg/mL recombinant human BAFF (same as Example 2) and Compound A (1 μM and 10 μM) using a 10% FBS/RPMI 1640 culture medium in a 5% CO2 environment at 37° C. for four days (coculture of the peripheral blood monocytes and the B cells via a membrane). Four days later, the supernatant was removed and the culture supernatant was collected to determine the IgG content in the culture supernatant by ELISA. As controls, experiments in the case of not adding Compound A and the case of adding neither Compound A nor BAFF were also performed. Moreover, for comparison with the effects of Compound A, experiments using BIK-13 instead of Compound A were also performed.

[2] = tested on: human peripheral blood monocytes; assay: IL-6 production inhibitory effect of BAFF from human peripheral blood monocytes (Example 3); format: cell-based; details: for IL-6 production inhibitory effect compared with the control: 4 days
Procedure: Monocytes were isolated from normal healthy human peripheral blood using CD14-microbeads. In the presence of 2 μg/mL recombinant human BAFF (same as Example 2) and Compound A (2 μM and 10 μM) (entire culture scale of 24-well culture plates at 2 mL/well), 5×10^5 of the isolated monocytes were cultured using a 10% FBS/RPMI 1640 culture medium in a 5% CO2 environment at 37° C. for four days. Four days later, the supernatant was removed to determine the IL-6 content in the culture supernatant by IL-6 specific ELISA. For comparison, experiments using BIK-13 instead of Compound A were also performed.

[3] = tested on: peripheral blood mononuclear cells (PBMC); assay: IgG production by B cell-stimulation culture using peripheral blood mononuclear cells (Example 5); format: cell-based, human; details: 7 days (results not shown)
Procedure: Peripheral blood mononuclear cells were isolated from normal healthy human peripheral blood by density gradient centrifugation using Ficoll. In the presence of 5 μg/mL anti-human IgM antibody, 1 μg/mL anti-human CD40 antibody, 30 ng/mL recombinant human IL-21, 30 ng/mL recombinant human BAFF, and Compound A (0.4 μM, 2 μM, and 10 μM), 2×10^5 peripheral blood mononuclear cells were cultured using a 10% FBS/RPMI 1640 culture medium in a 5% CO2 environment at 37° C. for seven days. The cells were cultured in 96-well round-bottom culture plates in a scale of 200 μL per well. Seven days later, the supernatant was removed and the culture supernatant was collected to determine the IgG content in the culture supernatant by ELISA. As controls, experiments in the case of not adding Compound A and the case of adding neither Compound A nor BAFF were also performed. Moreover, for comparison with the effects of Compound A, experiments using BIK-13 instead of Compound A were also performed.

[4] = tested on: human monocytic cell line THP-1; assay: IL-6 production inhibitory effect of BAFF in IFNγ-precultured THP-1 cells (Example 2); format: cell-based; details: for relative amount of IL-6 production: 30 μM, control (BAFF only) = 100%
Procedure: In 24-well plates (manufactured by Corning Inc.) in a RPMI-1640 culture medium (produced by ATCC) containing 10% fetal bovine serum (produced by JRH Biosciences), 5×10^5 cells of human monocytic leukemia cell line THP-1 (obtained from a bioresource bank, Japanese Collection of Research Bioresource) were seeded per well. IFNγ (interferon γ, produced by BD Pharmingen) was added to a final concentration of 200 ng/mL and cultured in a 5% CO2 environment at 37° C. After four days of culture, the culture broth in each well was removed and the cells were washed twice with the culture medium, followed by addition of the culture medium containing a final concentration of 2 μg/mL of recombinant human soluble BAFF (produced by Chemicon), and respective test compounds were added to a final concentration of 20 μM or 2 μM to continue the culture in the same conditions. After three days of culture, the culture supernatant was collected to determine the IL-6 content in the supernatant by ELISA. For ELISA, mouse anti-human IL-6 antibody (produced by BD Pharmingen), biotin-labeled anti-human IL-6 antibody (produced by BD Pharmingen), and HRP-labeled streptavidin (produced by BD Pharmingen) were used. The test compound groups were used by purchasing from Asinex. In the test system, Compound 27 (BIK-13) in PTL 1 was used as a positive control (compound with inhibitory action on IL-6 production by monocytic cells). BIK-13 was the same as the compound of ADM 12880656 by Asinex Japan Inc.
In the presence of 200 ng/mL recombinant human IFNγ (same as Example 1) (entire culture scale of 24-well culture plates at 2 mL/well), 5×10^5 cells of human monocytic cell line THP-1 (same as Example 1) were cultured using a 10% FBS/RPMI 1640 culture medium in a 5% CO2 environment at 37° C. for four days (96 hours). Four days later, an operation of removing the supernatant, adding a new medium, leaving it still in an incubator, and removing the supernatant was repeated twice. After removing the supernatant, recombinant human BAFF (2 μg/mL) was dissolved together with Compound A (ADM 12880492, Asinex Japan Inc.) or Compound B (ADM 12880696, Asinex Japan Inc.) in a medium and added to the culture wells to be cultured for three days. Three days later, the culture supernatant was collected to determine the IL-6 content in the culture supernatant by IL-6 specific ELISA. As a control, instead of Compound A or Compound B, BIK-13 was used.

| SMILES | IL-6 production inhibitory effect compared with the control ([1]; 1 μM with 2 μg/mL human BAFF) | IL-6 production inhibitory effect compared with the control ([1]; 10 μM with 2 μg/mL human BAFF) | cancellation of the IgG antibody production enhancement by BAFF ([1]; 10 μM, compared with adding neither compound nor BAFF) | IL-6 production inhibitory effect compared with the control ([2]; 2 μM with 2 μg/mL human BAFF) | IL-6 production inhibitory effect compared with the control ([2]; 10 μM with 2 μg/mL human BAFF) | relative amount of IL-6 production ([2]; 10 μM, control = 100%) [%] | IL-6 production inhibitory effect compared with the control ([3]; 0.4 μM and 2 μM) | IL-6 production inhibitory effect compared with the control ([3]; 10 μM) | IL-6 production inhibitory effect compared with adding no compound ([4]; 1.2 μM with 2 μg/mL human BAFF, 3 days) | IL-6 production inhibitory effect compared with adding no compound ([4]; 6 μM and 30 μM with 2 μg/mL human BAFF, 3 days) | relative amount of IL-6 production [4] | IL-6 production inhibitory effect compared with the control ([4]; 0.04 μM, 0.2 μM and 1 μM together with 2 μg/mL human BAFF, 3 days, ELISA) | IL-6 production inhibitory effect compared with BIK-13 ([4]; THP-1 system of Example 2) |
| --- | --- | --- | --- | --- | --- | --- | --- | --- | --- | --- | --- | --- | --- |
| Cc1c(C)n(C2CCCC2)c2ncnc(OC3CCN(C(=O)CN4CCCC4=O)CC3)c12 [BIK-13, reference compound] | no significant difference | significant (p<0.01) IL-6 production inhibitory effect | not completely cancelled | no significant difference | significant (p<0.05) IL-6 production inhibitory effect | 80.2±14.5 | no significant difference | significant (p<0.01) IL-6 production inhibitory effect | no significant difference | significant (p<0.001) IL-6 production inhibitory effects | 52.8±2.2% |  |  |
| Cc1c(C)n(C2CCCC2)c2ncnc(OC3CCN(CCC#N)CC3)c12 [Compound B, 3-[4-{(7-cyclopentyl-5,6-dimethyl-7H-pyrrolo[2,3-d]pyrimidin-4-yl)oxy}piperidin-1-yl]propanenitrile] |  |  |  |  |  |  |  |  |  |  | below 50% | significant (p<0.001) IL-6 production inhibitory effects | stronger IL-6 production inhibitory effect than BIK-13 |
